Source: publication PMC10252016, “Mutation in the Common Docking Domain Affects MAP Kinase ERK2 Catalysis and Stability” (Cancers, 2023)
Each block holds one molecule with its values, some of them ahead of it.

Columns and labels:
[1] = target: T1, extracellular-signal-regulated kinase 2 (ERK2) E322K (Homo sapiens, UniProt P28482, E322K); experiment: biochemical; parameters: Differential scanning fluorimetry, SYPRO Orange, 2 uM ERK2, melting temperature shift with 12 uM inhibitor; details: for ΔTm at 12 µM: read-out: ΔTm E322K
T1 construct: gene MAPK1; recombinant ERK2 E322K

D321A = target: T2, D321A (Homo sapiens, UniProt P28482, D321A); experiment: biochemical; parameters: Differential scanning fluorimetry, SYPRO Orange, 2 uM ERK2, melting temperature shift with 12 uM inhibitor; details: for ΔTm at 12 µM: read-out: ΔTm D321A
T2 construct: gene MAPK1; recombinant ERK2 D321A

D321E = target: T3, D321E (Homo sapiens, UniProt P28482, D321E); experiment: biochemical; parameters: Differential scanning fluorimetry, SYPRO Orange, 2 uM ERK2, melting temperature shift with 12 uM inhibitor; details: for ΔTm at 12 µM: read-out: ΔTm D321E
T3 construct: gene MAPK1; recombinant ERK2 D321E

D321N = target: T4, D321N (Homo sapiens, UniProt P28482, D321N); experiment: biochemical; parameters: Differential scanning fluorimetry, SYPRO Orange, 2 uM ERK2, melting temperature shift with 12 uM inhibitor; details: for ΔTm at 12 µM: read-out: ΔTm D321N
T4 construct: gene MAPK1; recombinant ERK2 D321N

D321V = target: T5, D321V (Homo sapiens, UniProt P28482, D321V); experiment: biochemical; parameters: Differential scanning fluorimetry, SYPRO Orange, 2 uM ERK2, melting temperature shift with 12 uM inhibitor; details: for ΔTm at 12 µM: read-out: ΔTm D321V
T5 construct: gene MAPK1; recombinant ERK2 D321V

D321G = target: T6, D321G (Homo sapiens, UniProt P28482, D321G); experiment: biochemical; parameters: Differential scanning fluorimetry, SYPRO Orange, 2 uM ERK2, melting temperature shift with 12 uM inhibitor; details: for ΔTm at 12 µM: read-out: ΔTm D321G
T6 construct: gene MAPK1; recombinant ERK2 D321G

[2] = target: T7, extracellular-signal-regulated kinase 2 (ERK2) (Homo sapiens, UniProt P28482); experiment: biochemical; parameters: Differential scanning fluorimetry, SYPRO Orange, 2 uM ERK2, melting temperature shift with 12 uM inhibitor; details: for ΔTm at 12 µM: read-out: ΔTm WT
T7 construct: gene MAPK1; recombinant ERK2 wild-type

[3] = target: T8, non-phosphorylated ERK2 wild-type (extracellular-signal-regulated kinase 2) (human, UniProt P28482 1-360); experiment: ITC; Affinity ITC (TA-Instruments), reversed mode: ERK2 protein (90-145 µM) in the cell, peptide (500 µM) in the syringe; 30 °C; 20 mM Hepes pH 7.5, 0.15 M NaCl, 0.5 mM TCEP; single binding site model; details: both partners purified
T8 construct: ERK2 (MAPK1), human, wild-type; Expressed from pNIC28-Bsa4; also called NP-ERK2 wild-type; NP-ERK2; source: E. coli Rosetta with phosphatase, purified (Ni-NTA, TEV cleavage, second Ni-NTA); not shown: His6, N-terminal, cleaved

[4] = target: T9, phosphorylated ERK2 wild-type (human, UniProt P28482 1-360, phosphorylated at Thr185 and Tyr187); experiment: as above; details: both partners purified
T9 construct: ERK2 (MAPK1), human, wild-type, phosphorylated on T185 and Y187 by co-expressed active MEK1; also called P-ERK2 wild-type; P-ERK2; not shown: His6, N-terminal, cleaved

ΔTm at 12 µM [1]: -1.3 °C | ΔTm at 12 µM (D321A): 3.2 °C | ΔTm at 12 µM (D321E): 3.7 °C | ΔTm at 12 µM (D321N): 5.4 °C | ΔTm at 12 µM (D321V): 5 °C | ΔTm at 12 µM (D321G): 4.6 °C | ΔTm at 12 µM [2]: 2.8 °C
Molecule: Nc1[nH]nc2nnc(-c3c(-c4ccccc4)nn4ccccc34)cc12 [FR 180204]

ΔTm at 12 µM [1]: 8.7 °C | ΔTm at 12 µM (D321A): 11 °C | ΔTm at 12 µM (D321E): 11.7 °C | ΔTm at 12 µM (D321N): 12.7 °C | ΔTm at 12 µM (D321V): 11.6 °C | ΔTm at 12 µM (D321G): 12.2 °C | ΔTm at 12 µM [2]: 11.6 °C
Molecule: O=C(Nc1ccc2[nH]nc(-c3ccncc3)c2c1)[C@@H]1CCN(CC(=O)N2CCN(c3ccc(-c4ncccn4)cc3)CC2)C1 [SCH772984]

Kd [3]: 23.7 µM
B1: pepMEK2, docking peptide derived from the upstream activating kinase MEK2 (peptide)
peptide: MLARRKPVLPALTINP
notes: docking peptide from MEK2 (MAP2K2), N-terminal stretch; Solubilised in 5% DMSO and diluted in buffer; source: synthetic peptide, bought: GenScript

More lines, now with the values behind:

Molecule: CC(C)Nc1cc(-c2c[nH]c(C(=O)N[C@H](CO)c3cccc(Cl)c3)c2)c(Cl)cn1 [Ulixertinib]
ΔTm at 12 µM [1]: 4.6 °C | ΔTm at 12 µM (D321A): 8.3 °C | ΔTm at 12 µM (D321E): 8.8 °C | ΔTm at 12 µM (D321N): 9.5 °C | ΔTm at 12 µM (D321V): 8.3 °C | ΔTm at 12 µM (D321G): 9.1 °C | ΔTm at 12 µM [2]: 7.9 °C

Molecule: Cn1nccc1Nc1nccc(-c2ccn([C@H](CO)c3ccc(Cl)c(F)c3)c(=O)c2)n1 [GDC-0994]
ΔTm E322K ([1]; 12 µM, binder): 6.80 °C | ΔTm D321A (D321A; 12 µM, binder): 10.70 °C | ΔTm D321E (D321E; 12 µM, binder): 11.20 °C | ΔTm D321N (D321N; 12 µM, binder): 12.20 °C | ΔTm D321V (D321V; 12 µM, binder): 10.30 °C | ΔTm D321G (D321G; 12 µM, binder): 11.80 °C | ΔTm WT ([2]; 12 µM, binder): 10.30 °C

Molecule: O=C1Nc2cc3[nH]nc(-c4ccncc4)c3cc2CN1Cc1ccccc1 [KO-947]
ΔTm at 12 µM [1]: 9.2 °C | ΔTm at 12 µM (D321A): 12.3 °C | ΔTm at 12 µM (D321E): 12.8 °C | ΔTm at 12 µM (D321N): 13.6 °C | ΔTm at 12 µM (D321V): 11.8 °C | ΔTm at 12 µM (D321G): 13.1 °C | ΔTm at 12 µM [2]: 11.8 °C

Molecule: COC[C@H]1Cn2cc(-c3nc(Nc4ccnn4C)ncc3C)nc2C(=O)N1Cc1ccc(F)c(F)c1 [AZD0364]
ΔTm at 12 µM [1]: 10.2 °C | ΔTm at 12 µM (D321A): 13.3 °C | ΔTm at 12 µM (D321E): 13.7 °C | ΔTm at 12 µM (D321N): 14.5 °C | ΔTm at 12 µM (D321V): 13 °C | ΔTm at 12 µM (D321G): 13.9 °C | ΔTm at 12 µM [2]: 12.8 °C

Molecule: Cn1nccc1Nc1nccc(-c2cc3c(s2)C(C)(C)N(CCN2CCOCC2)C3=O)n1 [LY3214996]
ΔTm at 12 µM [1]: 6.6 °C | ΔTm at 12 µM (D321A): 9.8 °C | ΔTm at 12 µM (D321E): 10.3 °C | ΔTm at 12 µM (D321N): 11.2 °C | ΔTm at 12 µM (D321V): 10 °C | ΔTm at 12 µM (D321G): 10.8 °C | ΔTm at 12 µM [2]: 9.4 °C

B2: Kinase Interaction Motif (KIM) peptide of DUSP6 (peptide)
peptide: GIMLRRLQKGNLPVRAL
notes: Solubilised in 5% DMSO and diluted in buffer; also called KIM of DUSP6; KIM peptide DUSP6; source: synthetic peptide, bought: GenScript
Kd [4]: 14.4 µM
